# Results as given in patent US7319103B2, “Non-imidazole tertiary amines as histamine 3 receptor inhibitors for the treatment of cognitive and sleep disorders, obesity and other CNS disorders” (Athersys, Inc., priority 2004, dated 2008).
# Assays:
# mouse H3 receptor = mouse H3 receptor (Mus musculus, UniProt P58406); assay: Radioligand competition binding assay, mouse H3 receptor; conditions: competition binding vs [3H]Nα-methylhistamine (~2 nM), membranes of cells expressing mouse H3 receptor
# Protocol: (§1) Representative compounds of the present invention that were prepared by the procedures of the Examples were evaluated in binding assays against cells expressing the mouse and human H3 receptor by the following procedure.
# (§2) Cells were washed with cold PBS buffer twice, scraped off the plates, and centrifuged at 1000×g for 5 minutes. Cells were resuspended in ice-cold buffer of 10 mM Tris, pH 7.4, 5 mM EDTA, protease inhibitor cocktail tablets (Roche Molecular Biochemicals) and incubated on ice for 10 minutes. The mixture was then homogenized with a dounce homogenizer or a polytron tissue grinder and centrifuged at 1000×g for 10 min at 4° C. The supernatant was centrifuged at 32,000×g for 30 min at 4° C. The membrane pellet was resuspended in a buffer of 50 mM Tris, pH 7.4 with protease inhibitor cocktail tablets and stored at −80° C. until use. Protein concentration was determined by the methods of Bradford.
# (§3) Membranes were homogenized in buffer containing 50 mM Tris/HCl, 1 mM EDTA pH 7.4, and protease inhibitor cocktail tablets. Dissociation constants of radioligand (KD values) and maximum binding sites (Bmax) were determined in saturation binding experiments. Ki and IC50 were determined in competition binding assays using a fixed amount of radioligand.
# (§4) Saturation binding assays were carried out in 96-well polypropylene plates in triplicate or quadruplicate. Reaction mixtures contained 100 μl of membrane suspension (˜100 μg/well), 50 μl of 4% DMSO, 50 μl of increasing amounts of [^3H]N^α-methylhistamine (final concentration of 0.01-20 nM). Nonspecific binding was defined with 10 uM clobenpropit. Competition binding assays were performed in a reaction mixture containing 100 μl of membrane suspension, 50 μl of [H]N^α-methylhistamine (final concentration of ˜2 nM), and 50 μl compounds. […] Incubations were carried out for 1.5 hours at room temperature. Reactions were terminated by rapid filtration over glass fibre GF/C filters (Perkin Elmers, MA) that had been presoaked in 0.3% PEI, using a Brandel cell harvester. The filters were washed with 500 ml of ice-cold buffer containing 50 mM Tris-HCl, pH 7.4, and were subsequently dried, impregnated with Meltilex wax scintillate (Perkin Elmers, MA) and counted with a Betaplate scintillation counter (Perkin Elmers, MA).
# (§5) All data were analyzed by nonlinear least square curve fitting using Prism 4.0 software. The KD for [^3H]N^α-methylhistamine and the Bmax were derived from equation RL=RfL/(KD+L). RL is concentration of receptor-bound ligand at equilibrium, L is the free ligand concentration, Rf is the total receptor concentration. For competition binding experiments, IC50 (the concentration of compound producing 50% inhibition of specific binding) was derived from fitting to a 4-parameter logistic equation. Apparent Ki values were calculated using the Cheng-Prussof equation of Ki=IC50/(1+(L)/Kd), L is the ligand concentration. Agonist stimulation and antagonist inhibition in FLIPR were fitted to sigmoidal dose response using equation Y=Bottom+(Top-Bottom)/(1+10^((LogEC50-X))), X is the logarithm of concentration of compounds. Y is the response.
# human H3 receptor = biological target: T1, human H3 receptor (Homo sapiens, UniProt Q9Y5N1); assay: Radioligand competition binding assay, human H3 receptor (HT1080 cell membranes); conditions: competition binding vs [3H]Nα-methylhistamine (~2 nM), membranes of HT1080 cells expressing human H3 receptor
# T1 construct: Expression of this receptor was provided by utilization of the RAGE methodology; endogenous in cells; host or cells: HT1080 (human fibrosarcoma) cells, H3 expression switched on by RAGE; co-transfected with chimeric G-protein Gqαi5
# Protocol: as §1
# An HT1080 cell line was produced that expresses the human H3 receptor. Expression of this receptor was provided by utilization of the RAGE methodology (Harrington et al., 2001) Nature Biotechol. 19:440-5. This cell line was transfected with the chimeric G-protein Gqαi5 (Conklin et al., 1993) Nature 363:274-6 to facilitate assessment of receptor activation through the analysis of intercellular Ca^++ levels using a fluorescence assay. The HT1080 cells expressing human histamine H3 receptor and Gqαi5 were grown in alpha-modified MEM containing 10% FBS, 3 ug/ml puromycin, 7 ug/ml blasticidin, and 3.2 uM methotrexate at 37° C. in 5% CO2/95% atmosphere.
# as §2, §3, §4, §5
# mouse H3 receptor, sequence (P58406 whole entry): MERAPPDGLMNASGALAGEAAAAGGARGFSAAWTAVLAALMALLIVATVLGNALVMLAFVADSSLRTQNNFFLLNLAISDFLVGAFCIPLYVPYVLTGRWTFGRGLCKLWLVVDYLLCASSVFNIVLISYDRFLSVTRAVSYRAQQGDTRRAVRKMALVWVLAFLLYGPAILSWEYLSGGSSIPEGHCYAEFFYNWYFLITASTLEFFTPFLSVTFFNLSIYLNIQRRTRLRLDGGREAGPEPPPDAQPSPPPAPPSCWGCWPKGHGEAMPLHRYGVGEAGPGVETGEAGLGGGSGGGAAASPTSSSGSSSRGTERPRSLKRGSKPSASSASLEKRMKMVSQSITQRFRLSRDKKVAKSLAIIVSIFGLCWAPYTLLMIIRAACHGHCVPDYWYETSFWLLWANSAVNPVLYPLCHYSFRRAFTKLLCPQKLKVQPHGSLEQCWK
# T1 sequence (Q9Y5N1 whole entry): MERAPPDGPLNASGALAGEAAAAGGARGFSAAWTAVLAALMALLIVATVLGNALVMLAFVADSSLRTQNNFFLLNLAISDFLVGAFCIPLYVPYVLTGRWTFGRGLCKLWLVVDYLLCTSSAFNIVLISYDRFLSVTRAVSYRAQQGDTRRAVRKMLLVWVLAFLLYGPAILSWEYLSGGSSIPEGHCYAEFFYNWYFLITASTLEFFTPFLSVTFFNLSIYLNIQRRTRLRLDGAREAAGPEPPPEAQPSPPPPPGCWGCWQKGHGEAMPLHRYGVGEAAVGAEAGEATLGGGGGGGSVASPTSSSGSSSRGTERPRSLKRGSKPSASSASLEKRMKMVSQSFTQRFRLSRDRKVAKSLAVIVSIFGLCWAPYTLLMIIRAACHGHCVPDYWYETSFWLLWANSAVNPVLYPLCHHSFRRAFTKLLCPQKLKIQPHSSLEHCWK
Structure (SMILES),Ki (mouse H3 receptor),Ki (human H3 receptor)
"CC1CCCN1CCCOc1ccc(-c2c3c(nc4ccnn24)CCCC3)cc1 (centres unmarked) [9-{4-[3-(2-Methyl-pyrrolidin-1-yl)-propoxy]-phenyl}-5,6,7,8-tetrahydro-pyrazolo[5,1-b]quinazoline]",< 50 nM,< 50 nM
"c1cc(OCCCN2CCCCC2)cc(-c2c3c(nc4ccnn24)CCCCC3)c1 [10-[3-(3-Piperidin-1-yl-propoxy)-phenyl]-6,7,8,9-tetrahydro-5H-1,4,10a-triaza-cyclohepta[f]indene]",< 5000 nM,< 500 nM
"c1cc(OCCCN2CCCC2)cc(-c2c3c(nc4ccnn24)CCCCC3)c1 [10-[3-(3-Pyrrolidin-1-yl-propoxy)-phenyl]-6,7,8,9-tetrahydro-5H-1,4,10a-triaza-cyclohepta[f]indene]",< 5000 nM,< 500 nM
"c1cc2nc3c(c(-c4ccc(OCCCN5CCCCC5)cc4)n2n1)CCCCC3 [10-[4-(3-Piperidin-1-yl-propoxy)-phenyl]-6,7,8,9-tetrahydro-5H-1,4,10a-triaza-cyclohepta[f]indene]",< 50 nM,< 50 nM
"C[C@@H]1CC[C@@H](C)N1CCCOc1ccc(-c2c3c(nc4ccnn24)CCCCC3)cc1 [10-{4-[3-(2,5-(R,R)-Dimethyl-pyrrolidin-1-yl)-propoxy]-phenyl}-6,7,8,9-tetrahydro-5H-1,4,10a-triaza-cyclohepta[f]indene]",< 500 nM,< 50 nM
"C[C@@H]1CCCN1CCCOc1ccc(-c2c3c(nc4ccnn24)CCCCC3)cc1 [10-{4-[3-(2-(R)-Methyl-pyrrolidin-1-yl)-propoxy]-phenyl}-6,7,8,9-tetrahydro-5H-1,4,10a-triaza-cyclohepta[f]indene]",< 50 nM,< 50 nM
"CC1CCCN1CCCOc1ccc(-c2c3c(nc4ccnn24)CCCCC3)cc1 (centres unmarked) [10-{4-[3-(2-Methyl-pyrrolidin-1-yl)-propoxy]-phenyl}-6,7,8,9-tetrahydro-5H-1,4,10a-triaza-cyclohepta[f]indene]",< 50 nM,< 50 nM
"c1ccc2c(-c3ccc(OCCCN4CCCC4)cc3)c3c(nc2c1)CCCCC3 [11-[4-(3-Pyrrolidin-1-yl-propoxy)-phenyl]-7,8,9,10-tetrahydro-6H-cyclohepta[b]quinoline]",< 500 nM,< 50 nM
"CN(C)[C@@H]1CCN(CCc2cc3cc(-c4c5c(nc6ccnn46)CCC5)ccc3o2)C1 [(1-{2-[5-(6,7-Dihydro-5H-1,4,8a-triaza-s-indacen-8-yl)-benzofuran-2-yl]-ethyl}-pyrrolidin-3-yl)-(R)-dimethyl-amine]",< 500 nM,< 500 nM
"CCN(CC)CCCOc1ccc(-c2c3c(nc4ccnn24)CCCCC3)cc1 [Diethyl-{3-[4-(6,7,8,9-tetrahydro-5H-1,4,10a-triaza-cyclohepta[f]inden-10-yl)-phenoxy]-propyl}-amine]",< 500 nM,< 50 nM
"CN(C)CCCOc1ccc(-c2c3c(nc4ccnn24)CCCC3)cc1 [Dimethyl-{3-[4-(5,6,7,8-tetrahydro-pyrazolo[5,1-b]quinazolin-9-yl)-phenoxy]-propyl}-amine]",< 500 nM,< 50 nM
"CN(CCCOc1ccc(-c2c3c(nc4ccnn24)CCCCC3)cc1)Cc1ccco1 [Furan-2-ylmethyl-methyl-{3-[4-(6,7,8,9-tetrahydro-5H-1,4,10a-triaza-cyclohepta[f]inden-10-yl)-phenoxy]-propyl}-amine]",< 500 nM,< 5000 nM
"CN(C)CCCOc1ccc(-c2c3c(nc4ccnn24)CCC3)cc1 [{3-[4-(6,7-Dihydro-5H-1,4,8a-triaza-s-indacen-8-yl)-phenoxy]-propyl}-dimethyl-amine]",< 500 nM,< 50 nM
